{"source": "patent EP2687509A2", "about": "“Dicarboxyimides derivatives for use in the treatment of cancer” (Warszawski Uniwersytet Medyczny, priority 2012, dated 2014)", "origin": "cited, not measured here", "key": {"[1]": {"details": "mouse, in vivo; cited from earlier work"}, "[2]": {"system": "murine leukemia, breast cancer and orthotopic models of non-small cell lung cancer and pancreatic cancer", "details": "cited from earlier work"}, "[3]": {"details": "higher than for the lead compound amonafide; cited from earlier work"}}, "data": [{"smiles": "CN(C)CCN1C(=O)c2cccc3cc(NC(=O)NC(=O)C(Cl)(Cl)Cl)cc(c23)C1=O", "note": "[UNBS3157, 2,2,2-trichloro-N-({2-[2-(dimethylamino)ethyl]-1,3-dioxo-2,3-dihydro-1H-benzo[de]izoquinolino-5-ylo}carbamoylo)acetamide]", "values": [{"measurement": "haemotoxicity", "setting": "[1]", "value": "no haemotoxicity"}, {"measurement": "activity in in vivo models compared to amonafide", "setting": "[2]", "value": "enhanced activity"}, {"measurement": "maximum tolerated dose relative to amonafide", "setting": "[3]", "value": "about 4 x"}]}]}
